# Laboratory results from ChEMBL document CHEMBL3885861, “Open TG-GATES”.
# Species on record: Rattus norvegicus
# Experiment: Open TG-GATES - Regimen: Single
# Type: toxicity, organism-based, Sprague-Dawley
# Set-up: regimen Single, gender Male, age 6 weeks
# Details: in vivo, po, 3 mg/kg, route gavage, dose level Low; for APTT / Bas / Eos / Fbg / Hb / Ht / Lym / MCH / MCHC / MCV / Mono / Neu / PT / Plat / RBC / Ret / WBC: tissue Blood; for KIDNEY_L / KIDNEY_R / KIDNEY_TOTAL: tissue Kidney; for LIVER: tissue Liver; for A/G / ALP / ALT / AST / BUN / CRE / Ca / Cl / DBIL / GLC / IP / K / LDH / Na / PL / RALB / TBIL / TC / TG / TP / gamma-GTP: tissue Plasma
smiles,measurement,setting,value
C[C@H]1C(=O)O[C@@H]2CCN3CC=C(COC(=O)[C@](C)(O)[C@]1(C)O)[C@H]23 [MONOCROTALINE],TERMINAL_BW,3 h,207 g
same,APTT,3 h,21.1 s
same,Bas,3 h,0%
same,Eos,3 h,0.8%
same,Fbg,3 h,296.8 mg/dL
same,Hb,3 h,13.5 g/dL
same,Ht,3 h,39.3%
same,Lym,3 h,80.4%
same,MCH,3 h,21.9 pg
same,MCHC,3 h,34.3%
same,MCV,3 h,63.9 fL
same,Mono,3 h,2.6%
same,Neu,3 h,16.6%
same,PT,3 h,16.6 s
same,Plat,3 h,121 x10_4/uL
same,RBC,3 h,615.6 x10_4/ul
same,Ret,3 h,8.9%
same,WBC,3 h,70.3 x10_2/uL
same,KIDNEY_L,3 h,0.9 g
same,KIDNEY_R,3 h,0.9 g
same,KIDNEY_TOTAL,3 h,1.8 g
same,LIVER,3 h,9.6 g
same,A/G,3 h,1.4
same,ALP,3 h,1405.4 IU/L
same,ALT,3 h,40.4 IU/L
same,AST,3 h,70.6 IU/L
same,BUN,3 h,14.4 mg/dL
same,CRE,3 h,0.1 mg/dL
same,Ca,3 h,10.6 mg/dL
same,Cl,3 h,106.4 meq/L
same,DBIL,3 h,0.002 mg/dL
same,GLC,3 h,176.6 mg/dL
same,IP,3 h,8.6 mg/dL
same,K,3 h,4.2 meq/L
same,LDH,3 h,232.4 IU/L
same,Na,3 h,142.8 meq/L
same,PL,3 h,141 mg/dL
same,RALB,3 h,3.1 g/dL
same,TBIL,3 h,0.014 mg/dL
same,TC,3 h,79.4 mg/dL
same,TG,3 h,73.8 mg/dL
same,TP,3 h,5.4 g/dL
same,gamma-GTP,3 h,1 IU/L
same,TERMINAL_BW,6 h,213.3 g
same,APTT,6 h,20.6 s
same,Bas,6 h,0%
same,Eos,6 h,0.8%
same,Fbg,6 h,314 mg/dL
same,Hb,6 h,13.4 g/dL
same,Ht,6 h,39.7%
same,Lym,6 h,77.6%
same,MCH,6 h,21.3 pg
same,MCHC,6 h,33.9%
same,MCV,6 h,62.8 fL
same,Mono,6 h,2.4%
same,Neu,6 h,17.8%
same,PT,6 h,16.2 s
same,Plat,6 h,124.3 x10_4/uL
same,RBC,6 h,632.2 x10_4/ul
same,Ret,6 h,9.3%
same,WBC,6 h,86.8 x10_2/uL
same,KIDNEY_L,6 h,0.9 g
same,KIDNEY_R,6 h,0.9 g
same,KIDNEY_TOTAL,6 h,1.9 g
same,LIVER,6 h,9.9 g
same,A/G,6 h,1.3
same,ALP,6 h,1354.2 IU/L
same,ALT,6 h,40 IU/L
same,AST,6 h,67.2 IU/L
same,BUN,6 h,12.2 mg/dL
same,CRE,6 h,0.1 mg/dL
same,Ca,6 h,10.7 mg/dL
same,Cl,6 h,106 meq/L
same,DBIL,6 h,0.004 mg/dL
same,GLC,6 h,175.2 mg/dL
same,IP,6 h,9.3 mg/dL
same,K,6 h,4.5 meq/L
same,LDH,6 h,200 IU/L
same,Na,6 h,141.8 meq/L
same,PL,6 h,139.8 mg/dL
same,RALB,6 h,3.1 g/dL
same,TBIL,6 h,0.01 mg/dL
same,TC,6 h,78 mg/dL
same,TG,6 h,86.2 mg/dL
same,TP,6 h,5.4 g/dL
same,gamma-GTP,6 h,1.2 IU/L
same,TERMINAL_BW,9 h,205.5 g
same,APTT,9 h,21 s
same,Bas,9 h,0%
same,Eos,9 h,0.6%
same,Fbg,9 h,291 mg/dL
same,Hb,9 h,13.3 g/dL
same,Ht,9 h,38.9%
same,Lym,9 h,79.8%
same,MCH,9 h,20.7 pg
same,MCHC,9 h,34.2%
same,MCV,9 h,60.6 fL
same,Mono,9 h,2.2%
same,Neu,9 h,16.2%
same,PT,9 h,16.4 s
same,Plat,9 h,126 x10_4/uL
same,RBC,9 h,642.2 x10_4/ul
same,Ret,9 h,8.7%
same,WBC,9 h,73.2 x10_2/uL
same,KIDNEY_L,9 h,0.9 g
same,KIDNEY_R,9 h,1 g
same,KIDNEY_TOTAL,9 h,1.9 g
same,LIVER,9 h,8.8 g
same,A/G,9 h,1.3
same,ALP,9 h,1565.2 IU/L
same,ALT,9 h,35.6 IU/L
same,AST,9 h,67 IU/L
same,BUN,9 h,12.4 mg/dL
same,CRE,9 h,0.1 mg/dL
same,Ca,9 h,10.5 mg/dL
same,Cl,9 h,106 meq/L
same,DBIL,9 h,0.006 mg/dL
same,GLC,9 h,184.4 mg/dL
same,IP,9 h,9.5 mg/dL
same,K,9 h,4 meq/L
same,LDH,9 h,197 IU/L
same,Na,9 h,142.2 meq/L
same,PL,9 h,130.6 mg/dL
same,RALB,9 h,3.1 g/dL
same,TBIL,9 h,0.02 mg/dL
same,TC,9 h,72.2 mg/dL
same,TG,9 h,48.6 mg/dL
same,TP,9 h,5.4 g/dL
same,gamma-GTP,9 h,1 IU/L
same,TERMINAL_BW,24 h,217.7 g
same,APTT,24 h,20.9 s
same,Bas,24 h,0%
same,Eos,24 h,1%
same,Fbg,24 h,305 mg/dL
same,Hb,24 h,13.2 g/dL
same,Ht,24 h,38.8%
same,Lym,24 h,80.6%
same,MCH,24 h,20.5 pg
same,MCHC,24 h,34.1%
same,MCV,24 h,60.3 fL
same,Mono,24 h,2.6%
same,Neu,24 h,15%
same,PT,24 h,16.2 s
same,Plat,24 h,117.2 x10_4/uL
same,RBC,24 h,645.2 x10_4/ul
same,Ret,24 h,7.7%
same,WBC,24 h,97.3 x10_2/uL
same,KIDNEY_L,24 h,1 g
same,KIDNEY_R,24 h,1 g
same,KIDNEY_TOTAL,24 h,2 g
same,LIVER,24 h,10.4 g
same,A/G,24 h,1.3
same,ALP,24 h,1841.2 IU/L
same,ALT,24 h,43.6 IU/L
same,AST,24 h,70.2 IU/L
same,BUN,24 h,16.4 mg/dL
same,CRE,24 h,0.1 mg/dL
same,Ca,24 h,10.8 mg/dL
same,Cl,24 h,106.4 meq/L
same,DBIL,24 h,0.006 mg/dL
same,GLC,24 h,178 mg/dL
same,IP,24 h,7.6 mg/dL
same,K,24 h,4.2 meq/L
same,LDH,24 h,220.2 IU/L
same,Na,24 h,142.2 meq/L
same,PL,24 h,160.2 mg/dL
same,RALB,24 h,3.2 g/dL
same,TBIL,24 h,0.006 mg/dL
same,TC,24 h,81.2 mg/dL
same,TG,24 h,102.8 mg/dL
same,TP,24 h,5.6 g/dL
same,gamma-GTP,24 h,1 IU/L
